Reference: US10189863B2, “5,6-dihydro-4H-benzo[b]thieno-[2,3-d]azepine derivatives” (PULMOCIDE LIMITED, priority 2014, dated 2019)

Legend:
RSV A2 strain = assay: Assessment of RSV induced CPE in HEp2 cells (RSV A2 strain); format: cell-based; conditions: human respiratory syncytial virus, HEp2 cells; for IC50: HEp-2, 120 h, 1 MOI, 5 days, read-out: RSV A2 CPE IC50; for inhibition at 0.1 µg/mL / inhibition at 0.01 µg/mL: HEp-2; for inhibition at 0.1 µg/mL: Inhibition (%) at 0.1 μg/mL, read-out: RSV A2 CPE % Inhibition; for inhibition at 0.01 µg/mL: Inhibition (%) at 0.01 μg/mL
Method: (§1) Assessment of RSV Induced CPE in HEp2 Cells
(§2) HEp2 cells were seeded (10^3/well/50 μL) in 384-well plates (Catalogue number 353962, BD Falcon, Oxford, UK) in […] containing 2 mM L-glutamine and 1 mM sodium pyruvate one day before infection. RSV A2 strain (#0709161v, NCPV, Public Health England, Wiltshire) or RSV B Washington strain (VR-1580, ATCC, Manassas, Va. 20108) virus solutions were prepared in serum free-DMEM with 2 mM L-glutamine and 1 mM sodium pyruvate, and then added (50 μL/well) to achieve a final virus concentration of 1 MOI. Simultaneously test compounds (0.5 μL DMSO solution) were added to 100 μL of HEp2 cell culture with virus solution to provide a final DMSO solution of 0.5%. Plates were incubated (37° C./5% CO2) for 5 days for studies using RSV A2 strain or 6 days for those using RSV B strain, and then resazurin sodium salt (5 μL of 0.03% solution; Sigma-Aldrich, Dorset, UK) was added to each well and the plate incubated for a further 6 hr (37° C./5% CO2). The fluorescence of each well [545 nm (excitation)/590 nm (emission)] was determined using a multi-scanner (Clariostar: BMG, Buckinghamshire, UK). The percentage inhibition for each well was calculated and the IC50, IC75 and IC90 values were calculated from the concentration-response curve generated for each test compound.

[1] = Cell viability: resazurin assay; format: cell-based, human; conditions: human, HEp2 cells
Method: Cell Viability: Resazurin Assay
HEp2 cells were seeded in 384-well plates (10^3/well/50 μL; BD Falcon Ref 353962) in FBS DMEM (5%, containing 2 mM L-glutamine and 1 mM sodium pyruvate) one day before experimentation. Serum-free DMEM (50 μL) was added to test wells while for control wells the media was removed and sterile water (100 μL) was added. Test compounds (0.5 μL DMSO solution) were added to give a final DMSO concentration of 0.5%. Hep2 cells were incubated with each test compound for 5 days (37° C./5% CO2 in 5% FBS) and then resazurin stock solution (5 μL; 0.03%) was added to each well and the plate incubated for a further 6 hr (37° C./5% CO2). The fluorescence of each well at 545 nm (excitation) and 590 nm (emission) was determined using a multi-scanner (Clariostar: BMG Labtech). The percentage loss of cell viability was calculated for each well relative to vehicle (0.5% DMSO) treatment.
Any apparent increase in cell viability associated with test compound treatment relative to vehicle is consequently tabulated as a negative percentage. Where appropriate, a CC50 value was calculated from the concentration-response curve generated from the concentration-response curve for each test compound.

RSV B Washington strain = assay: Assessment of RSV induced CPE in HEp2 cells (RSV B Washington strain); format: cell-based; conditions: human respiratory syncytial virus, HEp2 cells; for IC50: HEp-2, 144 h, 1 MOI, 6 days, read-out: RSV B CPE IC50; for inhibition at 1 µg/mL: HEp-2, Inhibition (%) at 1 μg/mL, read-out: RSV B CPE % Inhibition
Method: as §1, §2

Compound | IC50 (RSV A2 strain) [nM] | IC50 (RSV B Washington strain) [nM] | inhibition at 0.1 µg/mL (RSV A2 strain) [%] | CC50 at 5 days [1] [nM] | inhibition at 1 µg/mL (RSV B Washington strain) [%] | inhibition at 0.01 µg/mL (RSV A2 strain) [%]
Cc1ccc(NC(=O)c2cc3c(s2)-c2ccccc2N(C(=O)c2ccc(NC(=O)c4cccnc4N4CC5(CCOCC5)C4)cc2)CC3)c(F)c1 [Example 22, 6-(4-(2-(7-oxa-2-azaspiro[3.5]nonan-2-yl)nicotinamido)benzoyl)-N-(2-fluoro-4-methylphenyl)-5,6-dihydro-4H-benzo[b]thieno[2,3-d]azepine-2-carboxamide] | 0.96 | 37.3 | 96 | > 14200 | 77 | –
COc1ccc(NC(=O)c2cc3c(s2)-c2ccccc2N(C(=O)c2ccc(NC(=O)c4cccnc4N4CC5(CCOCC5)C4)cc2)CC3)c(F)c1 [Example 23, 6-(4-(2-(7-oxa-2-azaspiro[3.5]nonan-2-yl)nicotinamido)benzoyl)-N-(2-fluoro-4-methoxyphenyl)-5,6-dihydro-4H-benzo[b]thieno[2,3-d]azepine-2-carboxamide] | 1.1 | 16.3 | 100 | > 13900 | 55 | –
Cc1cccc(C)c1NC(=O)c1cc2c(s1)-c1ccccc1N(C(=O)c1ccc(NC(=O)c3cccnc3N3CC4(CCOCC4)C3)cc1)CC2 [Example 24, 6-(4-(2-(7-oxa-2-azaspiro[3.5]nonan-2-yl)nicotinamido)benzoyl)-N-(2,6-dimethylphenyl)-5,6-dihydro-4H-benzo[b] thieno[2,3-d]azepine-2-carboxamide] | 0.57 | 19.6 | 88 | > 14300 | 65 | –
Cc1cccc(F)c1NC(=O)c1cc2c(s1)-c1ccccc1N(C(=O)c1ccc(NC(=O)c3cccnc3N3CC4(CCOCC4)C3)cc1)CC2 [Example 25, 6-(4-(2-(7-oxa-2-azaspiro[3.5]nonan-2-yl)nicotinamido)benzoyl)-N-(2-fluoro-6-methylphenyl)-5,6-dihydro-4H-benzo[b]thieno[2,3-d]azepine-2-carboxamide] | 0.18 | 20.6 | 99 | > 14200 | 71 | –
O=C(Nc1c(F)cc(F)cc1F)c1cc2c(s1)-c1ccccc1N(C(=O)c1ccc(NC(=O)c3cccnc3N3CC4(CCOCC4)C3)cc1)CC2 [Example 28, 6-(4-(2-(7-oxa-2-azaspiro[3.5]nonan-2-yl)nicotinamido)benzoyl)-N-(2,4,6-trifluorophenyl)-5,6-dihydro-4H-benzo[b] thieno[2,3-d]azepine-2-carboxamide] | 0.17 | 41.4 | 96 | > 13800 | 66 | –
C=Cc1cccc(F)c1NC(=O)c1cc2c(s1)-c1ccccc1N(C(=O)c1ccc(NC(=O)c3cc(C)cnc3N3CC4(CCOCC4)C3)cc1)CC2 [Example 36, N-(2-fluoro-6-vinylphenyl)-6-(4-(5-methyl-2-(7-oxa-2-azaspiro[3.5]nonan-2-yl)nicotinamido)benzoyl)-5,6-dihydro-4H-benzo[b]thieno[2,3-d]azepine-2-carboxamide] | 0.16 | 13.4 | – | > 13700 | 99 | 95
C#Cc1cccc(F)c1NC(=O)c1cc2c(s1)-c1ccccc1N(C(=O)c1ccc(NC(=O)c3cc(C)cnc3N3CC4(CCOCC4)C3)cc1)CC2 [Example 37, N-(2-ethynyl-6-fluorophenyl)-6-(4-(5-methyl-2-(7-oxa-2-azaspiro[3.5]nonan-2-yl)nicotinamido)benzoyl)-5,6-dihydro-4H-benzo[b]thieno[2,3-d]azepine-2-carboxamide] | 0.15 | 7.2 | – | > 13800 | 100 | 100
Cc1ccc(C(=O)Nc2ccc(C(=O)N3CCc4cc(C(=O)Nc5c(C)cccc5F)sc4-c4ccccc43)cc2)c(N2CC3(CCOCC3)C2)n1 [Example 40, N-(2-fluoro-6-methylphenyl)-6-(4-(6-methyl-2-(7-oxa-2-azaspiro[3.5]nonan-2-yl)nicotinamido)benzoyl)-5,6-dihydro-4H-benzo[b]thieno[2,3-d]azepine-2-carboxamide] | 0.15 | 41.3 | 100 | > 14000 | 80 | –

These reach a lower IC50 (RSV A2 strain). Values come first.

IC50 (RSV A2 strain) [nM] | IC50 (RSV B Washington strain) [nM] | Compound | inhibition at 0.1 µg/mL (RSV A2 strain) [%] | CC50 at 5 days [1] [nM] | inhibition at 1 µg/mL (RSV B Washington strain) [%] | inhibition at 0.01 µg/mL (RSV A2 strain) [%]
0.13 | 27.9 | O=C(Nc1ccccc1F)c1cc2c(s1)-c1ccccc1N(C(=O)c1ccc(NC(=O)c3cccnc3N3CC4(CCOCC4)C3)cc1F)CC2 [Example 29, 6-(4-(2-(7-oxa-2-azaspiro[3.5]nonan-2-yl)nicotinamido)-2-fluorobenzoyl)-N-(2-fluorophenyl)-5,6-dihydro-4H-benzo[b]thieno[2,3-d]azepine-2-carboxamide] | 97 | > 14200 | 73 | –
0.1 | 49.6 | O=C(Nc1c(F)cccc1Cl)c1cc2c(s1)-c1ccccc1N(C(=O)c1ccc(NC(=O)c3cccnc3N3CC4(CCOCC4)C3)cc1F)CC2 [Example 31, 6-(4-(2-(7-oxa-2-azaspiro[3.5]nonan-2-yl)nicotinamido)-2-fluorobenzoyl)-N-(2-chloro-6-fluorophenyl)-5,6-dihydro-4H-benzo[b]thieno[2,3-d]azepine-2-carboxamide] | 100 | > 13500 | 90 | –
< 0.015 | 38.2 | Cc1cnc(N2CC3(CCOCC3)C2)c(C(=O)Nc2ccc(C(=O)N3CCc4cc(C(=O)Nc5ccccc5)sc4-c4ccccc43)cc2)c1 [Example 32, 6-(4-(5-methyl-2-(7-oxa-2-azaspiro[3.5]nonan-2-yl)nicotinamido)benzoyl)-N-phenyl-5,6-dihydro-4H-benzo[b] thieno[2,3-d]azepine-2-carboxamide] | 100 | > 14600 | 81 | –
0.11 | 38.5 | Cc1cnc(N2CC3(CCOCC3)C2)c(C(=O)Nc2ccc(C(=O)N3CCc4cc(C(=O)Nc5ccccc5Cl)sc4-c4ccccc43)cc2)c1 [Example 34, N-(2-chlorophenyl)-6-(4-(5-methyl-2-(7-oxa-2-azaspiro [3.5]nonan-2-yl)nicotinamido)benzoyl)-5,6-dihydro-4H-benzo[b]thieno[2,3-d]azepine-2-carboxamide] | 100 | > 13900 | 86 | –
0.14 | 62.8 | Cc1cnc(N2CC3(CCOCC3)C2)c(C(=O)Nc2ccc(C(=O)N3CCc4cc(C(=O)Nc5ccccc5C)sc4-c4ccccc43)cc2)c1 [Example 35, 6-(4-(5-methyl-2-(7-oxa-2-azaspiro[3.5]nonan-2-yl)nicotinamido)benzoyl)-N-(o-tolyl)-5,6-dihydro-4H-benzo[b] thieno[2,3-d]azepine-2-carboxamide] | 100 | > 14300 | 70 | –
< 0.014 | 18.4 | Cc1cnc(N2CC3(CCOCC3)C2)c(C(=O)Nc2ccc(C(=O)N3CCc4cc(C(=O)Nc5ccc(F)cc5F)sc4-c4ccccc43)cc2)c1 [Example 38, N-(2,4-difluorophenyl)-6-(4-(5-methyl-2-(7-oxa-2-aza-spiro[3.5]nonan-2-yl)nicotinamido)benzoyl)-5,6-dihydro-4H-benzo[b]thieno[2,3-d]azepine-2-carboxamide] | 100 | > 13900 | 73 | –
0.11 | 15.4 | Cc1ccc(C(=O)Nc2ccc(C(=O)N3CCc4cc(C(=O)Nc5c(F)cccc5Cl)sc4-c4ccccc43)cc2)c(N2CC3(CCOCC3)C2)n1 [Example 41, N-(2-chloro-6-fluorophenyl)-6-(4-(6-methyl-2-(7-oxa-2-azaspiro[3.5]nonan-2-yl)nicotinamido)benzoyl)-5,6-dihydro-4H-benzo[b]thieno[2,3-d]azepine-2-carboxamide] | 100 | > 13600 | 79 | –
